pEC50: −log10 of the molar value.
Key:
[1] = test system: cynomolgus monkeys (Macaca fascicularis); assay: Intravenous glucose tolerance test (IVGTT) in cynomolgus monkeys; format: in vivo; details: fasted, test article 6 mg/mL IV bolus 1-6 min before IV glucose 0.5 g/kg, plasma insulin 0-60 min, FIG. 1
Description: Intravenous Glucose Tolerance Test (IVGTT) in Cynomolgus Monkeys
Aged ([…]) cynomolgus monkeys (Macaca fascicularis; N=4-5/test article) were fasted overnight and anesthetized with ketamine prior to the intravenous glucose tolerance test (IVGTT). The test articles were formulated at 6 mg/mL in vehicle (5% polyethylene glycol 400: 95% (12% (w/v) sulfobutylether-β-cyclodextrin in deionized water) (v/v)]) and administered by intravenous bolus into a peripheral vein 1-6 minutes prior to the IVGTT. The IVGTT was initiated by administration of an IV bolus of glucose (0.5 g/kg as a 50% glucose solution). Blood samples were collected from a peripheral vein 0, 1, 3, 5, 10, 20, 40 and 60 minutes upon completion of the IV bolus glucose injection. The blood samples were collected directly into potassium ethylene diamine tetra-acetic acid tubes and plasma separated by centrifugation at 2,500 g for 10 minutes within 30 minutes of collection. The plasma from all time points was analyzed for insulin concentrations (μU/mL) using a Cobas e411 Immunology analyzer. Insulin area-under-the-curve (AUC) was calculated using GraphPad Prism software (v 9).

human GLP-1 receptor = molecular target: T1, human GLP-1 receptor (Homo sapiens, UniProt P43220); assay: GLP-1R cAMP assay (HitHunter cAMP accumulation); format: cell-based; details: CHO cells stably overexpressing human GLP-1 receptor, 30 min, 20-point dose response in triplicate
T1 construct: expressed in transfected cells
T1 sequence (P43220 24-463): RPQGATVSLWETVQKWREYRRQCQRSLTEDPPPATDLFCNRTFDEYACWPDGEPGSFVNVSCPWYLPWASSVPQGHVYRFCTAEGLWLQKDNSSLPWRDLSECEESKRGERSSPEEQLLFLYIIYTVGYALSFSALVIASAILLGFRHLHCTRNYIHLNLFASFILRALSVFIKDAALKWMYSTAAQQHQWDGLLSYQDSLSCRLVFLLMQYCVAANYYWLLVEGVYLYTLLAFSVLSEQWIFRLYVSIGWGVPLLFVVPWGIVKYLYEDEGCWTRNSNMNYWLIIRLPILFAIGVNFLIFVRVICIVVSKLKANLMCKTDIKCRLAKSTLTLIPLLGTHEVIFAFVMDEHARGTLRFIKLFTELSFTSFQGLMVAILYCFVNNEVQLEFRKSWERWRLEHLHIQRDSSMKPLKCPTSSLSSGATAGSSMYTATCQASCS
Description: CAMP accumulation was measured in Chinese hamster ovary (CHO) cells stably overexpressing the human GLP-1 receptor using the HitHunter CAMP Assay for Small Molecules Kit (Eurofins). Briefly, cells were grown in Ham's F12 Nutrient Mix with 10% FBS, and lifted with Cell Dissociation Buffer, Enzyme free, PBS based (ThermoFisher). […] The anti-cAMP antibody reagent was then added to cells at a 1:2 ratio and 5 μL of mixture was seeded in 384-well small volume white assay plates, at 10,000 cells/well. Cells were then treated with 50 nL compound using an ECHO 550 acoustic dispenser (Labcyte) in a 20-point dose response format in triplicate for 30 min. Cells were then lysed, and detection reagents added according to the manufacturer's protocol. After overnight incubation, luminescence was measured using a Perkin Elmer Envision plate reader. Dose response curves were analyzed using GraphPad Prism 9.0.

| SMILES | insulin secretion / insulin AUC [1] | pEC50 (human GLP-1 receptor) |
| --- | --- | --- |
| O=C(O)c1ccc2nc(CN3CCC(Oc4ccnc(COc5ccc(F)cc5Cl)n4)CC3)n(C[C@@H]3CCO3)c2c1 [Compound 326] | an increase in insulin secretion was observed |  |
| O=C(O)c1ccc2nc(CN3CCC(Nc4ccnc(COc5ccc(Cl)cc5F)n4)CC3)n(C[C@@H]3CCO3)c2c1 [Example 381, (S)-2-((4-((2-((4-Chloro-2-fluorophenoxy)methyl)pyrimidin-4-yl)amino)piperidin-1-yl)methyl)-1-(oxetan-2-ylmethyl)-1H-benzo[d]imidazole-6-carboxylic acid] |  | > 7.30 |
| C[C@H]1C[C@@H](Oc2ccnc(COc3ccc(C#N)cc3F)n2)CCN1Cc1nc2ccc(C(=O)O)cc2n1C[C@@H]1CCO1 [Example 313, 2-(((2S,4S)-4-((2-((4-Cyano-2-fluorophenoxy)methyl)pyrimidin-4-yl)oxy)-2-methylpiperidin-1-yl)methyl)-1-(((S)-oxetan-2-yl)methyl)-1H-benzo[d]imidazole-6-carboxylic acid] | an increase in insulin secretion was observed |  |
| C[C@H]1C[C@@H](Oc2ccnc(COc3ccc(F)cc3C#N)n2)CCN1Cc1nc2ccc(C(=O)O)cc2n1C[C@@H]1CCO1 [Example 355, 2-(((2S,4S)-4-((2-((2-cyano-4-fluorophenoxy)methyl)pyrimidin-4-yl)oxy)-2-methylpiperidin-1-yl)methyl)-1-(((S)-oxetan-2-yl)methyl)-1H-benzo[d]imidazole-6-carboxylic acid] | an increase in insulin secretion was observed |  |
| CCn1cncc1Cn1c(CN2CCC(Oc3ccnc(COc4ccc(Cl)cc4C#N)c3)CC2)nc2ccc(C(=O)O)cc21 [Compound 171, 2-{[4-({2-[(4-chloro-2-cyanophenoxy)methyl]pyridin-4-yl}oxy)piperidin-1-yl]methyl}-1-[(1-ethyl-1H-imidazol-5-yl)methyl]-1H-1,3-benzodiazole-6-carboxylic acid] | an increase in insulin secretion was observed |  |
| CCn1cncc1Cn1c(CN2CCC([C@H](F)c3cccc(COc4ccc(Cl)cc4C#N)c3)CC2)nc2ccc(C(=O)O)cc21 (single isomer, unassigned) [Example 263] |  | > 7.30 |
| CCn1cncc1Cn1c(CN2CCC([C@@H](F)c3cccc(COc4ccc(Cl)cc4C#N)c3)CC2)nc2ccc(C(=O)O)cc21 (single isomer, unassigned) [Example 260] |  | > 7.30 |
| O=C(O)c1ccc2nc(CN3CCC(Oc4ccnc(COc5ccc(C(F)(F)F)cc5F)n4)CC3)n(C[C@@H]3CCO3)c2c1 [Compound 338] | an increase in insulin secretion was observed |  |
| CN(c1ccnc(COc2ccc(Cl)cc2F)n1)C1CCN(Cc2nc3ccc(C(=O)O)cc3n2C[C@@H]2CCO2)CC1 [Compound 382, 2-{[4-({2-[(4-chloro-2-fluorophenoxy)methyl]pyrimidin-4-yl}(methyl)amino)piperidin-1-yl]methyl}-1-{[(2S)-oxetan-2-yl]methyl}-1H-1,3-benzodiazole-6-carboxylic acid] |  | > 7.30 |
| O=C(O)c1ccc2nc(CN3CCC(Oc4cccc(COc5ccc(F)cc5Cl)c4)CC3)n(C[C@@H]3CCO3)c2c1 [Compound 207] |  | > 7.30 |
| CCn1cncc1Cn1c(CN2CCC(Oc3ccnc(COc4ccc(Cl)cc4Cl)c3)CC2)nc2ccc(C(=O)O)cc21 [Example 145, 2-((4-((2-((2,4-Dichlorophenoxy)methyl)pyridin-4-yl)oxy)piperidin-1-yl)methyl)-1-((1-ethyl-1H-imidazol-5-yl)methyl)-1H-benzo[d]imidazole-6-carboxylic acid] | an increase in insulin secretion was observed |  |
| N#Cc1ccc(OCc2nccc(OC3C[C@H]4CC[C@@H](C3)N4Cc3nc4ccc(C(=O)O)cc4n3C[C@@H]3CCO3)n2)c(F)c1 (single isomer, unassigned) [Compound 488] |  | 6.30 to 7.30 |

Source: patent US12459929B2 (Carmot Therapeutics Inc., priority 2021, dated 2025)
